Reference: the supplement of paper PMC13380429

Key:
Conditions in all cases: 72 h
Calu-3 [1] = assay: drug sensitivity score (DSS) for viability; higher = more toxic; extreme values may be limits of the assay
Caco-2 [2] = assay: as above
U2OS [3] = assay: as above
HepG2 [4] = assay: as above
Vero E6 [5] = assay: as above
Calu-3 [6] = assay: cell viability relative to DMSO; higher = less toxic
Caco-2 [7] = assay: as above
U2OS [8] = assay: as above
HepG2 [9] = assay: as above
Vero E6 [10] = assay: as above
Calu-3 [11] = assay: relative viability EC50 (midpoint between 100% and the lowest measured viability); higher = less toxic
Caco-2 [12] = assay: as above
U2OS [13] = assay: as above
HepG2 [14] = assay: as above
Vero E6 [15] = assay: as above

| Compound | drug sensitivity score (Calu-3 [1]) | drug sensitivity score (Caco-2 [2]) | drug sensitivity score (U2OS [3]) | drug sensitivity score (HepG2 [4]) | drug sensitivity score (Vero E6 [5]) | cell viability (Calu-3 [6]; 1 nM) [%] | cell viability (Calu-3 [6]; 10 nM) [%] | cell viability (Calu-3 [6]; 100 nM) [%] | cell viability (Calu-3 [6]; 1000 nM) [%] | cell viability (Calu-3 [6]; 10000 nM) [%] | cell viability (Caco-2 [7]; 1 nM) [%] | cell viability (Caco-2 [7]; 10 nM) [%] | cell viability (Caco-2 [7]; 100 nM) [%] | cell viability (Caco-2 [7]; 1000 nM) [%] | cell viability (Caco-2 [7]; 10000 nM) [%] | cell viability (U2OS [8]; 1 nM) [%] | cell viability (U2OS [8]; 10 nM) [%] | cell viability (U2OS [8]; 100 nM) [%] | cell viability (U2OS [8]; 1000 nM) [%] | cell viability (U2OS [8]; 10000 nM) [%] | cell viability (HepG2 [9]; 1 nM) [%] | cell viability (HepG2 [9]; 10 nM) [%] | cell viability (HepG2 [9]; 100 nM) [%] | cell viability (HepG2 [9]; 1000 nM) [%] | cell viability (HepG2 [9]; 10000 nM) [%] | cell viability (Vero E6 [10]; 1 nM) [%] | cell viability (Vero E6 [10]; 10 nM) [%] | cell viability (Vero E6 [10]; 100 nM) [%] | cell viability (Vero E6 [10]; 1000 nM) [%] | cell viability (Vero E6 [10]; 10000 nM) [%] | relative viability EC50 (Calu-3 [11]) [µM] | relative viability EC50 (Caco-2 [12]) [µM] | relative viability EC50 (U2OS [13]) [µM] | relative viability EC50 (HepG2 [14]) [µM] | relative viability EC50 (Vero E6 [15]) [µM] |
| --- | --- | --- | --- | --- | --- | --- | --- | --- | --- | --- | --- | --- | --- | --- | --- | --- | --- | --- | --- | --- | --- | --- | --- | --- | --- | --- | --- | --- | --- | --- | --- | --- | --- | --- | --- |
| COC(=O)C1=C(C)NC(C)=C(C(=O)OCCN(C)Cc2ccccc2)C1c1cccc([N+](=O)[O-])c1 (stereo not given) [nicardipine] | 0 | 1.9 | 0 | 0 | 0 | 91.7 | 91.5 | 94.1 | 90.2 | 90.2 | 102 | 120 | 97.9 | 84.1 | 84.8 | 96.5 | 103 | 95.5 | 98.1 | 91.3 | 91.6 | 100 | 141 | 109 | 95.4 | 93.2 | 106 | 98.2 | 103 | 96.9 | > 10 | > 10 | > 10 | > 10 | > 10 |
| Cc1cc2c(s1)Nc1ccccc1N=C2N1CCN(C)CC1 [olanzapine] | 0 | 0 | 0 | 0 | 0 | 99 | 102 | 104 | 104 | 108 | 97.8 | 91.5 | 98.1 | 99.1 | 103 | 93.1 | 99 | 95.2 | 99.6 | 102 | 118 | 110 | 121 | 98.5 | 106 | 96.4 | 96.8 | 96 | 92.7 | 104 | > 10 | > 10 | > 10 | > 10 | > 10 |
| CCCc1nc(C(C)(C)O)c(C(=O)O)n1Cc1ccc(-c2ccccc2-c2nnn[nH]2)cc1 [olmesartan] | 0 | 0 | 0 | 0 | 0 | 105 | 101 | 102 | 98 | 101 | 93 | 95.5 | 91.8 | 90.9 | 99.3 | 98.2 | 96.5 | 98.7 | 93.5 | 99.6 | 93.8 | 108 | 93.3 | 98.7 | 99.6 | 98.8 | 102 | 97.2 | 96.9 | 92.7 | > 10 | > 10 | > 10 | > 10 | > 10 |
| CCOC(=O)C1=C[C@@H](OC(CC)CC)[C@H](NC(C)=O)[C@@H](N)C1 [oseltamivir-phosphate] | 0 | 0 | 0 | 0 | 0 | 99.4 | 96.9 | 104 | 103 | 106 | 79.7 | 92.2 | 92.6 | 95.9 | 94 | 93.4 | 104 | 97.9 | 97.6 | 102 | 107 | 98.6 | 98 | 106 | 107 | 95.4 | 93.2 | 99.1 | 92.4 | 103 | > 10 | > 10 | > 10 | > 10 | > 10 |
| COc1ccc(COc2cc3oc(=O)c4cc(C(C)O)ccc4c3cc2OC)cc1 (stereo not given) [palomid-529] | 0 | 0.3 | 0 | 0 | 0 | 111 | 98.9 | 84.8 | 101 | 96.2 | 107 | 94.1 | 96.4 | 85.6 | 93.7 | 96.3 | 105 | 94.4 | 94 | 99.8 | 97.3 | 100 | 101 | 99.6 | 102 | 101 | 100 | 99 | 100 | 99.7 | > 10 | > 10 | > 10 | > 10 | > 10 |
| Cc1cc(NC(=O)NCCN2CCC(O)(Cc3ccccc3)CC2)c2ccccc2n1 [palosuran] | 0 | 0 | 0 | 0 | 0 | 95.3 | 91.9 | 103 | 100 | 89.4 | 99.5 | 93.1 | 88.3 | 99.4 | 104 | 99.3 | 94.9 | 98 | 96.5 | 103 | 102 | 110 | 96.3 | 99.7 | 92.5 | 104 | 106 | 99.4 | 104 | 102 | > 10 | > 10 | > 10 | > 10 | > 10 |
| O=C(Oc1ccccc1)c1ccccc1O [phenyl-salicylate] | 0 | 0 | 0 | 0 | 0 | 103 | 101 | 93.6 | 104 | 94.9 | 95.3 | 93.7 | 98.1 | 97.1 | 97.6 | 97.7 | 100 | 97.5 | 102 | 99.4 | 100 | 104 | 97.1 | 110 | 106 | 105 | 99.8 | 105 | 98.4 | 104 | > 10 | > 10 | > 10 | > 10 | > 10 |
| NC(=O)CN1CCCC1=O [piracetam] | 0 | 0 | 0 | 0 | 0 | 110 | 97.7 | 112 | 109 | 97.9 | 102 | 91.2 | 98.7 | 96.6 | 102 | 100 | 102 | 100 | 97.7 | 102 | 92.1 | 103 | 98 | 98.5 | 105 | 93.3 | 98.3 | 91.7 | 93.3 | 92 | > 10 | > 10 | > 10 | > 10 | > 10 |
| CC12CCC(C(=O)N(CCCCN3CCN(c4ccccn4)CC3)C1=O)C2(C)C (stereo not given) [piricapiron] | 0.6 | 0 | 0 | 0 | 0 | 100 | 105 | 101 | 93.2 | 85.9 | 87.3 | 99.7 | 96.5 | 98.1 | 93 | 101 | 103 | 99.1 | 101 | 95.6 | 106 | 101 | 101 | 102 | 97.6 | 97.2 | 99.8 | 101 | 93.5 | 104 | > 10 | > 10 | > 10 | > 10 | > 10 |
| Cc1c(C(=O)NN2CCCCC2)nn(-c2ccc(Cl)cc2Cl)c1-c1ccc(Cl)cc1 [rimonabant] | 0 | 0.8 | 0 | 0 | 0 | 101 | 93.6 | 89.1 | 96.8 | 99.2 | 98.7 | 91.3 | 97.7 | 90.5 | 81.1 | 95.6 | 95.8 | 98.1 | 95.4 | 92.7 | 97.6 | 94.1 | 105 | 103 | 88.3 | 92.4 | 95 | 88 | 93.5 | 101 | > 10 | > 10 | > 10 | > 10 | > 10 |
| CCCN(CCc1cccs1)[C@H]1CCc2c(O)cccc2C1 [rotigotine] | 0 | 0 | 0 | 0 | 0 | 105 | 100 | 103 | 100 | 99.6 | 98.7 | 95.7 | 103 | 101 | 103 | 95 | 98 | 98.4 | 97 | 96.6 | 94.1 | 91.7 | 87 | 107 | 102 | 93.4 | 97 | 90.1 | 98.5 | 98.7 | > 10 | > 10 | > 10 | > 10 | > 10 |
| CC(=O)OCC(=O)NCCCOc1cccc(CN2CCCCC2)c1 [roxatidine-acetate] | 0 | 0 | 0 | 0 | 0 | 107 | 111 | 103 | 99.5 | 99.8 | 103 | 91.5 | 97.1 | 101 | 93.9 | 96 | 95 | 98.7 | 93.9 | 97.6 | 94.3 | 107 | 95.5 | 95.4 | 91.1 | 106 | 106 | 99.1 | 103 | 99.2 | > 10 | > 10 | > 10 | > 10 | > 10 |
